Measurements as given in patent US11083795B2, “Amorphous metal-organic frameworks” (Cambridge Enterprise Limited, priority 2015, dated 2021).

Assays:
HeLa cells = assay: Drug cellular uptake by confocal microscopy; assay type: cell-based; conditions: 24 h incubation; frameworks 0.5 mg/mL, free calcein 0.075 mg/mL
Method: HeLa cells were seeded in a NUNC™ imaging four-well plate at a density of 1.11×10^5 cell/mL and incubated for 24 h at 37° C. with 5% CO2 in DMEM supplemented with 10% (v/v) Fetal Bovine Serum (FBS), 2 mM L-glutamine, 100 units/mL penicillin and 100 μg/mL streptomycin.
The cells were washed twice with PBS and incubated together with calcein-loaded crystalline Zr-containing metal-organic frameworks (0.5 mg/mL) for 24 h. The amorphous frameworks were obtained by mechanical amorphization of calcein-loaded crystalline Zr-containing metal-organic frameworks. The metal-organic frameworks were well-dispersed in culture media before they were added to the cells.
Untreated cell and free calcein (at a concentration of 0.075 mg/mL) were included as controls.
After incubation for 24 h, the cells were washed several times to remove the non-internalized particles. Cells then were incubated for 15 min with Hoechst 33342 (H33342) and 1× of CellMask™ Orange to stain the nucleus and cell membrane, respectively (each dye provided at a concentration of 5 μg/mL). The cells were then washed extensively to remove the dyes and fresh media (without phenol red) was added to each sample. Finally, the plate was placed on a Leica TCS SP5 confocal microscope for imaging. The microscope was equipped with 405 diode, argon and HeNe lasers. Leica LAS AF software was used to analyse the images.

rat = test system: rat; set-up: lethal dose LD50: unit not given here; conditions: cited from earlier work

| SMILES | calcein signal in HeLa cells by confocal microscopy (HeLa cells) | lethal dose LD50 (rat; in rats) | oral lethal dose, LD50 (rat; oral, rat model) |
| --- | --- | --- | --- |
| O=C(O)CN(CC(=O)O)Cc1cc2c(cc1O)Oc1cc(O)c(CN(CC(=O)O)CC(=O)O)cc1C21OC(=O)c2ccccc21 [calcein] | stained weakly in the form of bright vesicles |  |  |
| CC(=O)[O-].CC(=O)[O-].[O-2].[Zr+4] [zirconyl acetate] |  | ~4.1 | around 4.1 g/kg |
